These results are taken from paper PMC10962703 (bioRxiv, 2024).

One data set relates to INS-1E cells. The data set can be described thus: Glucose-stimulated insulin secretion. The format is cell-based, rat.
Data set [1] addresses T1, human D2R (Homo sapiens, UniProt P14416). The data set can be described thus: cell-based. Type of data set: cell-based. As to conditions: for Emax: read-out: D2R mitogenesis Emax.
Target sequence in this assay (P14416 whole entry): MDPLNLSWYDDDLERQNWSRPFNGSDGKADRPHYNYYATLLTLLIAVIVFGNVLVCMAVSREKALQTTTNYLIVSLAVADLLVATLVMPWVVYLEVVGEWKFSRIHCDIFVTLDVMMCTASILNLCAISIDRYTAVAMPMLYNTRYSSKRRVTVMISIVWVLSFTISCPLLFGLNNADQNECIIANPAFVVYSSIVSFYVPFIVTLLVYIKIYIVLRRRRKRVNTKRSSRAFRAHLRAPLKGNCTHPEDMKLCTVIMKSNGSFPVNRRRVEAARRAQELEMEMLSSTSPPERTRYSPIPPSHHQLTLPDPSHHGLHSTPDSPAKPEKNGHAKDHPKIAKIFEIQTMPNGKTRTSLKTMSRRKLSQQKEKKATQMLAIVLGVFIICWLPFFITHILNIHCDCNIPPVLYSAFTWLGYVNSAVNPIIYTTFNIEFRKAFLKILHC
The target of data set [2] is T2, human D3R (Homo sapiens, UniProt P35462). The data set can be described thus: D3R-mediated mitogenesis. As to conditions: for Emax: read-out: D3R mitogenesis Emax. Type of data set: cell-based.
T2 sequence (P35462 whole entry): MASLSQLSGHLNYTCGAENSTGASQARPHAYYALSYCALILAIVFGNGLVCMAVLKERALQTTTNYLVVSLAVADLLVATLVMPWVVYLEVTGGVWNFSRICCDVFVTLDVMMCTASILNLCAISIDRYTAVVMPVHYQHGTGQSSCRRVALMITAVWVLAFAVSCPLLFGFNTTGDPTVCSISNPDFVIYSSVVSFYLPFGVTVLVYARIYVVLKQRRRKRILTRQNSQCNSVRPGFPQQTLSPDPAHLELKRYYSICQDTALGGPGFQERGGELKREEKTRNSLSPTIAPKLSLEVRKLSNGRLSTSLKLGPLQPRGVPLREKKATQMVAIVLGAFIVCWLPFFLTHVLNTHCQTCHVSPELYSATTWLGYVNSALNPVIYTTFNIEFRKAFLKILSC
Data set [3] can be described thus: In vivo pharmacokinetics, plasma and brain levels. On the set-up: species or system CD1 mice. The conditions noted are these: for Brain Conc.: mean ± SEM, n=3; for Kp at 0.25 h / Kp at 1 h / concentration at 15 min / concentration at 60 min: male, CD1, mouse, 10 mg/kg; for Kp at 0.25 h / Kp at 1 h: brain, iv; for concentration at 15 min / concentration at 60 min: plasma, intravenous.

The target of data set [4] is T1, human D2R. As to conditions: [3H]-(R)-(+)-7-OH-DPAT.
Target sequence in this assay (P14416 whole entry): as the sequence (P14416 whole entry) above
Data set [5] concerns the target T1, human D2R. The data set can be described thus: biochemical.
Target sequence in this assay (P14416 whole entry): as above
In data set [6] the target is T2, human D3R. The data set can be described thus: biochemical.
In data set [7] the target is T2, human D3R. The data set can be described thus: Radioligand competition binding, HEK293 membranes, hD3R. The conditions noted are these: [3H]-(R)-(+)-7-OH-DPAT.
Another data set has as its system human D4R. The data set can be described thus: Radioligand competition binding, HEK293 membranes, hD4R. The conditions noted are these: [3H]-(R)-(+)-7-OH-DPAT.
In the next data set the target is T3, human DA D4.4 receptors (Homo sapiens, UniProt P21917).
T3 sequence (P21917 1-419): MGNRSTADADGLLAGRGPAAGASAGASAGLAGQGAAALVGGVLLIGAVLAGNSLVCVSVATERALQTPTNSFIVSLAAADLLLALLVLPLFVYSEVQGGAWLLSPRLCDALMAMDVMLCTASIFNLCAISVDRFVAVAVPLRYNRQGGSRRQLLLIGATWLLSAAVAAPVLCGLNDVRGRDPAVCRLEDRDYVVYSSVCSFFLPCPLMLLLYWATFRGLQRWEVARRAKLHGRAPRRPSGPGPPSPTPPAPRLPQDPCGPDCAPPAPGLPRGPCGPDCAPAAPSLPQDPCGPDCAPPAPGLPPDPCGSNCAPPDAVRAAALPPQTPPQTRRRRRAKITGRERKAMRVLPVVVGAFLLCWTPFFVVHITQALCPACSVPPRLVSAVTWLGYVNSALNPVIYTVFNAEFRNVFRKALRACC
Type of data set: cell-based. The conditions noted are these: inhibition of forskolin-stimulated cAMP formation.

Data set [8] addresses T1, human D2R. The format is cell-based.
Target sequence in this assay (P14416 whole entry): as the sequence (P14416 whole entry) above
Target sequence in this assay (P63096 2-354 partner limits assumed): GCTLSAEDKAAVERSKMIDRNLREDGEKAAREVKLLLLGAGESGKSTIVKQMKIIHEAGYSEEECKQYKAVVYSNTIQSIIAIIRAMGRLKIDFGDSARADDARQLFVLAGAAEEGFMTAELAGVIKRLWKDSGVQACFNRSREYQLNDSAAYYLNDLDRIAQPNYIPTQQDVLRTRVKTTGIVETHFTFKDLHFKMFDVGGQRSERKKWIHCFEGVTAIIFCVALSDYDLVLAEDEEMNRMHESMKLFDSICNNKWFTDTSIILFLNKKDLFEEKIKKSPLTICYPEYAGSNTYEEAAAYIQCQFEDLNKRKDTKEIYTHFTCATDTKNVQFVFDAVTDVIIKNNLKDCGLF
Data set [9] in a line: Mouse microsomal stability assay. Type of data set: in vitro ADME. The conditions noted are these: mouse liver microsomes + NADPH, 1 µM, 30 min.
Data set [10] relates to Western diet-fed wild-type C57BL/6J mice. The data set can be described thus: Oral glucose tolerance testing in diet-induced obesity model. The format is in vivo. The conditions noted are these: for fasting blood glucose: 6-h fast.
Data set [11] shares this test system. The data set can be described thus: Insulin tolerance testing in diet-induced obesity model. Type of data set: in vivo. As to conditions: 10 mg/kg i.p. daily, 12 weeks.
For data set [12] the test system is unchanged. The data set can be described thus: Body weight in diet-induced obesity model. Type of data set: in vivo. As to conditions: 10 mg/kg i.p. daily, at 12 weeks.
Another data set deals with Sprague-Dawley rats. The data set can be described thus: Intracerebroventricular L-DOPA infusion, plasma glucose and insulin. Type of data set: in vivo. As to conditions: 10 mM i.c.v. infusion, 5 µL/h, 3.5 h.
Where [13] appears, read: 10 mg/kg i.v., 60 min versus 15 min.

“And” between values parts separate entries of the source, which are not always exact repeats. Equal entries are not always repeated. “Also recorded” adds a separate entry of the source.

For `CCC[N+]1(C)CCC[C@@H]2Cc3n[nH]cc3C[C@H]21.[I-]` (stereo partly drawn) [AB01–59, (4aR,8aR)-5-Methyl-5-propyl-4,4a,5,6,7,8,8a,9-octahydro-2H-pyrazolo[3,4-g]quinolin-5-ium iodide], in the data set on INS-1E cells, the “decrease in GSIS potency versus unmodified parent” value came out at 5.9 fold and the “reduced efficacy in GSIS versus unmodified parent (decrease)” value was 48.4%.
Consider `CC(C)C[C@H]1C(=O)N2CCC[C@H]2[C@]2(O)O[C@](NC(=O)[C@@H]3C=C4c5cccc6[nH]c(Br)c(c56)C[C@H]4[N+](C)(C)C3)(C(C)C)C(=O)N12.[I-]` [AB01–60, (6aR,9R)-5-Bromo-9-(((2R,5S,10aS,10bS)-10b-hydroxy-5-isobutyl-2-isopropyl-3,6-dioxooctahydro-8H-oxazolo[3,2-a]pyrrolo[2,1-c]pyrazin-2-yl)carbamoyl)-7,7-dimethyl-4,6,6a,7,8,9-hexahydroindolo[4,3-fg]quinolin-7-ium iodide], for which, at human D2R [1], the “diminished potency in D2R-mediated mitogenesis versus unmodified parent” value worked out at 15.6 fold and the Emax turned out to be 88%. Also, on human D3R [2], the concentration for a half-maximal effect (EC50) was determined as 38 ± 11 nM, the “diminished potency in D3R-mediated mitogenesis versus unmodified parent” value is 11.2 fold and the Emax stood at 91%. Moreover, the “decrease in GSIS potency versus unmodified parent” value in the data set on INS-1E cells is on record as 57.7 fold. Besides, the “Brain Conc.” value in data set [3] (10 mg/kg i.v., 15 min) is 1282.3 ± 130.7 pmol/g. Also, the “plasma levels greater compared to bromocriptine” value in data set [3] (10 mg/kg i.v., 60 min, listed as BrMeI) is 8 fold and ~ 8 fold. In addition, in [3] (10 mg/kg i.v., 60 min), the “Brain Conc.” value is on record as 651.9 ± 133.7 pmol/g. Moreover, in data set [3], the Kp at 0.25 h stood at 0.3 ± 0.03, the Kp at 1 h came to 0.51 ± 0.06, the concentration at 15 min worked out at 4260 ± 381 nM and the concentration at 60 min came out at 1280 ± 71.1 nM. Moreover, on human D2R [4], the “D3R/D2R ratio of binding affinity” value worked out at 5.57 and the “diminished D2R binding affinity compared to unmodified parent compound” value was determined as 5.3 fold. For the same molecule, affinity at human D2R [5] was put at a Ki of 3.14 ± 0.34 nM. On human D3R [6], this molecule returned a Ki of 17.5 ± 4.9 nM. Besides, the “diminished D3R binding affinity compared to unmodified parent compound” value at human D3R [7] was 8.5 fold.
With `Cc1cccc(NC(=O)C[N+]2(C)CCC(c3ccccc3)CC2)c1.[I-]` (stereo not shown) [AB01–102, 1-Methyl-1-(2-oxo-2-(m-tolylamino)ethyl)-4-phenylpiperidin-1-ium iodide], the “loss of D4R binding affinity compared to unmodified parent” value in the data set on human D4R stood at 61.7 fold. In addition, the “diminished potency in D4R cAMP assay compared to unmodified parent” value on human DA D4.4 receptors is listed as 731.9 fold. On human DA D4.4 receptors (relative to (−)-quinpirole), the “functional behaviour in D4R cAMP assay” value is “partial agonists”.
As for `CC(C)C[C@H]1C(=O)N2CCC[C@H]2[C@]2(O)O[C@](NC(=O)[C@@H]3C=C4c5cccc6[nH]c(Br)c(c56)C[C@H]4N(C)C3)(C(C)C)C(=O)N12` [Bromocriptine, bromocriptine], the Emax at human D2R [1] was 99%. On human D3R [2], this molecule came in with an EC50 of 3.4 ± 1.1 nM. Also, the “less efficacy than DA in Gαi1 recruitment to D2R” value on human D2R [8] is on record as 47%. The “% drug remaining” value in data set [9] is on record as “entirely metabolized”. Also, in data set [9] (listed as bromocriptine), the “% drug remaining” value is “complete disappearance”. Moreover, in data set [3] (10 mg/kg i.v., 15 min), the “Brain Conc.” value was 995.2 ± 188.0 pmol/g. For the same molecule, the “Brain Conc.” value in data set [3] (10 mg/kg i.v., 60 min) is recorded as 71.1 ± 2.3 pmol/g. Also, in data set [3] (setting [13]), the “decrease in brain level by 60 min post-administration” value stood at 92.9% and the “decrease in plasma level by 60 min post-administration” value worked out at 88.2%. In data set [3], this molecule displayed a Kp at 0.25 h of 0.74 ± 0.11, a Kp at 1 h of 0.45 ± 0.05, a concentration at 15 min of 1340 ± 52.2 nM and a concentration at 60 min of 159 ± 15 nM. In data set [10] (10 mg/kg i.p. daily, 12 weeks), the “glucose tolerance (OGTT) versus vehicle” value is given as “significant improvements in glucose tolerance; also recorded: improvement in glucose tolerance” and the fasting blood glucose result is listed as “significantly lower fasting blood glucose”. In addition, the fasting blood glucose entry in [10] (10 mg/kg i.p. daily, 12 weeks, listed as bromocriptine) is reported as “significantly lower fasting glucose”. In addition, the “glucose tolerance (OGTT) versus i.c.v. vehicle” value in data set [10] (i.c.v. daily, 8 weeks (10 mg/kg)) was “did not significantly modify glucose tolerance; also recorded: no significant effect on glucose tolerance”. Further, the glucose tolerance result in [10] (systemic administration, 8 weeks, data not shown) is “sufficient to improve glucose tolerance”. Further, the “insulin sensitivity / blood glucose during ITT versus vehicle” value in data set [11] (1.5 U/kg insulin) is listed as “significant improvements in insulin sensitivity”. Also, in data set [11] (initial 15 min of ITT), the “plasma insulin during ITT” value is listed as “significantly enhanced plasma insulin levels”. Moreover, in [12], the “body weight versus vehicle” value is given as “neither systemic bromocriptine nor BrMeI treatments had significant effects on weight; also recorded: no significant effect”. At human D2R [4], the “D3R/D2R ratio of binding affinity” value turned out to be 3.46. The molecule further registered a Ki at human D2R [5] of 0.59 ± 0.17 nM. The molecule further showed a Ki on human D3R [6] of 2.05 ± 0.56 nM.
With `N[C@@H](Cc1ccc(O)c(O)c1)C(=O)O` [L-DOPA], in the data set with Sprague-Dawley rats, the “plasma glucose versus saline vehicle” value was “did not significantly impact” and the “plasma insulin versus saline vehicle” value is “did not significantly impact”.
`CN[C@@H]1Cc2cccc3[nH]c(=O)n(c23)C1` [Sumanirole, sumanirole]: the Emax amounted to 110% at human D2R [1] and 180% on human D3R [2]. The molecule further had an EC50 at human D3R [2] of 224 ± 24 nM.
